Assay results published in patent publication US9695155B2, “Herbicidal substituted pyrimidinyloxy benzene compounds” (E. I. DU PONT DE NEMOURS AND COMPANY, priority 2013, dated 2017).

Experiments:
pigweed = test: Test C preemergence; format: in vivo, Amaranthus retroflexus; details: for Pigweed plant response rating: preemergence; for Plant response rating, Pigweed: Preemergence, 31 g ai/ha, scale 0 to 100, 0 no effect, 100 complete control
Method in brief: (§1)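 Plants were kept under greenhouse conditions for 13–15 days following spray. Pre-emergent application went to soil (loam–sand), post-emergent to foliage at 1–4 leaves. Evaluation: visual, percent control against untreated checks.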

barnyardgrass [1] = test: Test C postemergence; format: in vivo, Echinochloa crus-galli; details: for Barnyardgrass plant response rating / Plant response rating, Barnyardgrass: scale 0 to 100 (0 no effect, 100 complete control)
Method in brief: as §1

wheat, winter = test: Test C postemergence; format: in vivo, Triticum aestivum
Method in brief: as §1

lambsquarters = test: Test C postemergence; format: in vivo, Chenopodium album
Method in brief: as §1

giant foxtail = test: Test C postemergence; format: in vivo, Setaria faberii; details: for Foxtail, Giant plant response rating / Plant response rating, Foxtail, Giant: scale 0 to 100 (0 no effect, 100 complete control)
Method in brief: as §1

sedge, umbrella = test: Test B flooded paddy test; format: in vivo, Cyperus difformis; details: Flood, 250 g ai/ha; 0 to 100 scale where 0 is no effect and 100 is complete control
Method in brief: (§2)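 Evaluation is visual, against untreated controls, 13 to 15 days after treatment. Before treatment, plants reached the 2-leaf stage; pots were then flooded 3 cm deep, compound was added to the water, and that level was maintained. Ratings run 0 to 100, with 100 meaning complete control.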

barnyardgrass [2] = test: Test B flooded paddy test; format: in vivo, Echinochloa crus-galli; details: Flood, 250 g ai/ha; 0 to 100 scale where 0 is no effect and 100 is complete control
Method in brief: as §2

corn = test: Test C postemergence; format: in vivo, Zea mays; details: for Corn plant response rating / Plant response rating, Corn: scale 0 to 100 (0 no effect, 100 complete control)
Method in brief: as §1

large (Lg) crabgrass [3] = test: Test C postemergence; format: in vivo, Digitaria sanguinalis; details: for Crabgrass, Large plant response rating / Plant response rating, Crabgrass, Large: scale 0 to 100 (0 no effect, 100 complete control)
Method in brief: as §1

waterhemp = test: Test C postemergence; format: in vivo, Amaranthus rudis
Method in brief: as §1

large (Lg) crabgrass [4] = test: Test C preemergence; format: in vivo, Digitaria sanguinalis; details: for Crabgrass, Large plant response rating: preemergence; for Plant response rating, Crabgrass, Large: Preemergence, 31 g ai/ha, scale 0 to 100, 0 no effect, 100 complete control
Method in brief: as §1

chickweed = test: Test C postemergence; format: in vivo, Stellaria media; details: for Chickweed plant response rating / Plant response rating, Chickweed: scale 0 to 100 (0 no effect, 100 complete control)
Method in brief: as §1

[5] = 16 g ai/ha, scale 0 to 100 (0 no effect, 100 complete control)
[6] = 62 g ai/ha, scale 0 (no effect) to 100 (complete control)
[7] = 125 g ai/ha, scale 0 (no effect) to 100 (complete control)
[8] = 16 g ai/ha, postemergence, 0 is no effect, 100 is complete control
[9] = 31 g ai/ha, postemergence, visual rating, 13 to 15 days
[10] = 125 g ai/ha, postemergence, visual rating
[11] = 31 g ai/ha, postemergence, visual rating, scale 0 to 100 (0 no effect, 100 complete control), 13 to 15 days
[12] = 125 g ai/ha, postemergence, visual rating, scale 0 to 100 (0 no effect, 100 complete control)
[13] = Postemergence, 62 g ai/ha, scale 0 to 100 (0 no effect, 100 complete control)
[14] = 16 g ai/ha, postemergence, visual rating, 13 to 15 days
[15] = Postemergence, 31 g ai/ha, 13 to 15 days
[16] = Postemergence, 31 g ai/ha, scale 0 to 100 (0 no effect, 100 complete control), 13 to 15 days

FCc1cn(-c2c(F)cccc2Oc2ncc(Cl)cn2)nn1 [Compound 154]
Pigweed plant response rating (pigweed; [5]): 85
Pigweed plant response rating (pigweed; [6]): 100
Pigweed plant response rating (pigweed; [7]): 100
Plant response rating (0 to 100), Barnyardgrass (barnyardgrass [1]; [8]): 5
Barnyardgrass plant response rating (barnyardgrass [1]; [9]): 5
Plant response rating, Barnyardgrass (barnyardgrass [1]; [10]): 20
Plant response rating, Barnyardgrass (barnyardgrass [1]; Postemergence, 62 g ai/ha): 10
Plant response rating (0 to 100), Wheat (wheat, winter; [8]): 0
Wheat plant response rating (wheat, winter; [11]): 0
Plant response rating, Wheat (wheat, winter; [12]): 5
Plant response rating, Wheat (wheat, winter; [13]): 0
Plant response rating (0 to 100), Lambsquarters (lambsquarters; [8]): 20
Lambsquarters plant response rating (lambsquarters; [11]): 55
Plant response rating, Lambsquarters (lambsquarters; [12]): 70
Plant response rating, Lambsquarters (lambsquarters; [13]): 60
Plant response rating (0 to 100), Foxtail, Giant (giant foxtail; [8]): 5
Foxtail, Giant plant response rating (giant foxtail; [9]): 10
Plant response rating, Foxtail, Giant (giant foxtail; [10]): 15
Plant response rating, Foxtail, Giant (giant foxtail; Postemergence, 62 g ai/ha): 5
Plant response rating, Sedge, Umbrella (sedge, umbrella): 30
Plant response rating, Barnyardgrass (barnyardgrass [2]): 20
Plant response rating (0 to 100), Corn (corn; [8]): 0
Corn plant response rating (corn; [9]): 0
Plant response rating, Corn (corn; [10]): 0
Plant response rating, Corn (corn; Postemergence, 62 g ai/ha): 0
Plant response rating (0 to 100), Crabgrass, Large (large (Lg) crabgrass [3]; [8]): 5
Crabgrass, Large plant response rating (large (Lg) crabgrass [3]; [9]): 10
Plant response rating, Crabgrass, Large (large (Lg) crabgrass [3]; [10]): 10
Plant response rating, Crabgrass, Large (large (Lg) crabgrass [3]; Postemergence, 62 g ai/ha): 10
Plant response rating (0 to 100), Waterhemp (waterhemp; [8]): 5
Waterhemp plant response rating (waterhemp; [11]): 60
Plant response rating, Waterhemp (waterhemp; [12]): 70
Plant response rating, Waterhemp (waterhemp; [13]): 65
Crabgrass, Large plant response rating (large (Lg) crabgrass [4]; [5]): 75
Crabgrass, Large plant response rating (large (Lg) crabgrass [4]; [6]): 100
Crabgrass, Large plant response rating (large (Lg) crabgrass [4]; [7]): 100
Plant response rating, Crabgrass, Large (large (Lg) crabgrass [4]): 90
Plant response rating (0 to 100), Chickweed (chickweed; [8]): 5
Chickweed plant response rating (chickweed; [9]): 5
Plant response rating, Chickweed (chickweed; [10]): 60
Plant response rating, Chickweed (chickweed; Postemergence, 62 g ai/ha): 10

N#Cc1cccc(Oc2ncc(Br)cn2)c1-n1cc(I)cn1 [Compound 88]
Pigweed plant response rating (pigweed; [5]): 100
Pigweed plant response rating (pigweed; [6]): 100
Pigweed plant response rating (pigweed; [7]): 100
Plant response rating, Pigweed (pigweed): 100
Barnyardgrass plant response rating (barnyardgrass [1]; [14]): 5
Plant response rating (0 to 100), Barnyardgrass (barnyardgrass [1]; 125 g ai/ha, postemergence): 10
Plant response rating, Barnyardgrass (barnyardgrass [1]; [15]): 5
Plant response rating, Barnyardgrass (barnyardgrass [1]; Postemergence, 62 g ai/ha): 5
Plant response rating (0 to 100), Wheat (wheat, winter; 125 g ai/ha, postemergence): 5
Plant response rating, Wheat (wheat, winter; [16]): 5
Plant response rating, Wheat (wheat, winter; [13]): 5
Plant response rating (0 to 100), Lambsquarters (lambsquarters; 125 g ai/ha, postemergence): 75
Plant response rating, Lambsquarters (lambsquarters; [16]): 75
Plant response rating, Lambsquarters (lambsquarters; [13]): 60
Foxtail, Giant plant response rating (giant foxtail; [14]): 20
Plant response rating (0 to 100), Foxtail, Giant (giant foxtail; 125 g ai/ha, postemergence): 40
Plant response rating, Foxtail, Giant (giant foxtail; [15]): 35
Plant response rating, Foxtail, Giant (giant foxtail; Postemergence, 62 g ai/ha): 30
Plant response rating, Sedge, Umbrella (sedge, umbrella): 0
Plant response rating, Barnyardgrass (barnyardgrass [2]): 0
Corn plant response rating (corn; [14]): 5
Plant response rating (0 to 100), Corn (corn; 125 g ai/ha, postemergence): 10
Plant response rating, Corn (corn; [15]): 10
Plant response rating, Corn (corn; Postemergence, 62 g ai/ha): 10
Crabgrass, Large plant response rating (large (Lg) crabgrass [3]; [14]): 5
Plant response rating (0 to 100), Crabgrass, Large (large (Lg) crabgrass [3]; 125 g ai/ha, postemergence): 10
Plant response rating, Crabgrass, Large (large (Lg) crabgrass [3]; [15]): 5
Plant response rating, Crabgrass, Large (large (Lg) crabgrass [3]; Postemergence, 62 g ai/ha): 10
Plant response rating (0 to 100), Waterhemp (waterhemp; 125 g ai/ha, postemergence): 90
Plant response rating, Waterhemp (waterhemp; [16]): 75
Plant response rating, Waterhemp (waterhemp; [13]): 85
Crabgrass, Large plant response rating (large (Lg) crabgrass [4]; [5]): 45
Crabgrass, Large plant response rating (large (Lg) crabgrass [4]; [6]): 100
Crabgrass, Large plant response rating (large (Lg) crabgrass [4]; [7]): 100
Plant response rating, Crabgrass, Large (large (Lg) crabgrass [4]): 70
Chickweed plant response rating (chickweed; [14]): 5
Plant response rating (0 to 100), Chickweed (chickweed; 125 g ai/ha, postemergence): 90
Plant response rating, Chickweed (chickweed; [15]): 15
Plant response rating, Chickweed (chickweed; Postemergence, 62 g ai/ha): 20

CCOc1cn(-c2c(Br)cccc2Oc2ncc(Cl)cn2)nn1 [Compound 84]
Pigweed plant response rating (pigweed; [5]): 85
Pigweed plant response rating (pigweed; [6]): 100
Pigweed plant response rating (pigweed; [7]): 100
Plant response rating, Pigweed (pigweed): 100
Barnyardgrass plant response rating (barnyardgrass [1]; [14]): 0
Plant response rating (0 to 100), Barnyardgrass (barnyardgrass [1]; 125 g ai/ha, postemergence): 15
Plant response rating, Barnyardgrass (barnyardgrass [1]; [15]): 0
Plant response rating, Barnyardgrass (barnyardgrass [1]; Postemergence, 62 g ai/ha): 0
Plant response rating (0 to 100), Wheat (wheat, winter; 125 g ai/ha, postemergence): 0
Plant response rating, Wheat (wheat, winter; [16]): 0
Plant response rating, Wheat (wheat, winter; [13]): 0
Plant response rating (0 to 100), Lambsquarters (lambsquarters; 125 g ai/ha, postemergence): 80
Plant response rating, Lambsquarters (lambsquarters; [16]): 30
Plant response rating, Lambsquarters (lambsquarters; [13]): 55
Foxtail, Giant plant response rating (giant foxtail; [14]): 40
Plant response rating (0 to 100), Foxtail, Giant (giant foxtail; 125 g ai/ha, postemergence): 50
Plant response rating, Foxtail, Giant (giant foxtail; [15]): 5
Plant response rating, Foxtail, Giant (giant foxtail; Postemergence, 62 g ai/ha): 5
Plant response rating, Sedge, Umbrella (sedge, umbrella): 30
Plant response rating, Barnyardgrass (barnyardgrass [2]): 0
Corn plant response rating (corn; [14]): 0
Plant response rating (0 to 100), Corn (corn; 125 g ai/ha, postemergence): 5
Plant response rating, Corn (corn; [15]): 0
Plant response rating, Corn (corn; Postemergence, 62 g ai/ha): 0
Crabgrass, Large plant response rating (large (Lg) crabgrass [3]; [14]): 5
Plant response rating (0 to 100), Crabgrass, Large (large (Lg) crabgrass [3]; 125 g ai/ha, postemergence): 30
Plant response rating, Crabgrass, Large (large (Lg) crabgrass [3]; [15]): 5
Plant response rating, Crabgrass, Large (large (Lg) crabgrass [3]; Postemergence, 62 g ai/ha): 5
Plant response rating (0 to 100), Waterhemp (waterhemp; 125 g ai/ha, postemergence): 70
Plant response rating, Waterhemp (waterhemp; [16]): 50
Plant response rating, Waterhemp (waterhemp; [13]): 70
Crabgrass, Large plant response rating (large (Lg) crabgrass [4]; [5]): 45
Crabgrass, Large plant response rating (large (Lg) crabgrass [4]; [6]): 100
Crabgrass, Large plant response rating (large (Lg) crabgrass [4]; [7]): 100
Plant response rating, Crabgrass, Large (large (Lg) crabgrass [4]): 98
Chickweed plant response rating (chickweed; [14]): 10
Plant response rating (0 to 100), Chickweed (chickweed; 125 g ai/ha, postemergence): 50
Plant response rating, Chickweed (chickweed; [15]): 10
Plant response rating, Chickweed (chickweed; Postemergence, 62 g ai/ha): 40
